Laboratory results from patent US5656613A, “Treatment of hyperandrogenic conditions” (Merck & Co., Inc., priority 1995, dated 1997).
Like-named read-outs stand apart in the source and are kept apart here.

Tests used:
[1] = molecular target: T1, human type 2 5α-reductase (Homo sapiens, UniProt P31213); experiment: Structural requirements / inhibition constants and IC50 on type 2 enzyme (Examples 9 and 11); type: biochemical
T1 construct: host or cells: native human prostate tissue or recombinant from a baculovirus expression system; considered interchangeable
T1 sequence (P31213 1-254): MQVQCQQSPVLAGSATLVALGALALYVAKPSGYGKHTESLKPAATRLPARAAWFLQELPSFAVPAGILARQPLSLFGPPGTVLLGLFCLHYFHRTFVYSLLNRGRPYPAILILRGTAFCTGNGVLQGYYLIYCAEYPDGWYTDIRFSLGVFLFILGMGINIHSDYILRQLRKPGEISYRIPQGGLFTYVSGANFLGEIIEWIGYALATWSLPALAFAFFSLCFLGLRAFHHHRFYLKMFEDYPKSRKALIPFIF
Protocol: (§1) The human isozymes were employed exclusively in this research. The native isozymes were from scalp (type 1 ) or prostate (type 2) tissues, and the recombinant forms were produced by a baculovirus expression system. Except where specified, all data refer to the prostate (type 2) isozyme, the primary target of finasteride. All of the experiments described in this application were also conducted with the recombinant type 1 isozyme, either in parallel or for confirmation.
Permutations of three structural changes to finasteride were tested for their ability to abolish time-dependent inhibition. All compounds were tested at their apparent IC50 values at pH 5.5 and 37° C.
(§2) Following the procedures of Example 9, the compounds below were each tested with both human type 1 and type 2 enzyme.

[2] = molecular target: T2, human type 1 5α-reductase (Homo sapiens, UniProt P18405); experiment: Inhibition of human type 1 enzyme (Example 11); type: biochemical; conditions: for IC50 / kon: Table 2, human type 1
T2 construct: made in house
T2 sequence (P18405 1-259): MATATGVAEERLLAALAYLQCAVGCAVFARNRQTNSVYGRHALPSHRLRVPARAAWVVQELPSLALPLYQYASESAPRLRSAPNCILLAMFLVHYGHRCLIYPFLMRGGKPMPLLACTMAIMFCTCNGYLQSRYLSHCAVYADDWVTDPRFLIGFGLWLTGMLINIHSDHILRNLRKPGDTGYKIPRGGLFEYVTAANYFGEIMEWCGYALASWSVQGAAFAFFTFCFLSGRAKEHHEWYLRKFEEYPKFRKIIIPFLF
Protocol: Permutations of three structural changes to finasteride were tested for their ability to abolish time-dependent inhibition. All compounds were tested at their apparent IC50 values at pH 5.5 and 37° C. Those displaying slow-binding inhibition are identified by kon values, which were determined as described for finasteride above. Those for which no time-dependent inhibition was found are identified by apparent Ki values.
as §2

[3] = comparison with NADP-dihydrofinasteride adduct; cited from earlier work
[4] = molecular target: T3, human 5α-reductase (prostate, type 2) (Homo sapiens, UniProt P31213); experiment: Inhibition of 5α-reductase by free NADP-dihydrofinasteride adduct; type: biochemical
T3 construct: host or cells: native human prostate tissue or recombinant from a baculovirus expression system; considered interchangeable
T3 sequence (P31213 1-254): T1 sequence (P31213 1-254)
Protocol: as §1

[5] = Nonenzymatic decomposition / stability of NADP-dihydrofinasteride adduct; type: physicochemical; conditions: for degraded at 0.235 µM: 0.1m mops, pH 7.2, 235 nM, 0.1M MOPS; for ability to dissociate to [^14 C]-dihydrofinasteride after oxidation: phenazine methosulfate / pyrazine methosulfate
Protocol: The integrity of the NADP-[^14 C]dihydrofinasteride adduct, defined as its ability to form [^14 C]-dihydrofinasteride, was measured by high pressure liquid chromatography on a reverse phase column (VYDAC, 4.6×250 mm, 300 Å, 5 micron, flow rate=1 mL/min) in 60% aqueous methanol. The retention time was about 14 minutes, and was consistently 1.4 min longer than that for [^3 H]finasteride, as determined by co-injection. […] The halflife for decomposition was ~1 min in 0.1M ammonium formate buffer at pH 4.00 and 100° C., and these conditions gave 88% conversion to [^14 C]-dihydrofinasteride at infinite time.
All lines of evidence point to the covalent adduct of inhibitor and cofactor. (1) The absorbance and fluorescence spectra resemble those of NAD(P)H, the NAD-pyruvate complex and analogs and the NAD-cyanide addition complex described by Kaplan, et al. (2) On heating, the compound decomposes to (^14 C)dihydrofinasteride with a rate constant of ~6×10^-4 s^-1 and halflife of 20 min in water at neutral pH and 100° C., explaining the recovery of dihydrofinasteride in the heat-denaturation experiments above. […] (4) Securing the identification, the most prominent parent ion peak in its mass spectrum had the correct charge/mass ratio of 1116 Da.
The rate constant for nonenzymatic breakdown of the covalent intermediate to NADP^+ and dihydrofinasteride was determined under the same conditions used for the enzyme kinetic constants. See Example 5. A constant kx =7.21+0.27×10^-7 s^-1 and a halflife of 11.1±0.4 days at pH 7.2 and 37° C. was calculated. The formation of [^14 C]dihydrofinasteride went to 75% completion at infinite lime, presumably due to competing side reactions like oxidation of the dihydropyridine ring.
The decay of the isolated complex to NADP+ and [^14 C]dihydrofinasteride was measured as a function of time to determine the rate constant for nonenzymatic decomposition of NADP-dihydrofinasteride. The complex (235 nM) was incubated in 0.1M MOPS, 0.1% BSA, and 1 mM EDTA at pH 7.2 and 37° C., and fractions were taken each day and stored at -75° C. These were later analyzed by reverse phase chromatography as described for the assay using a neutral isocratic system of 60% methanol, where [^14 C]dihydrofinasteride has a retention time of 14 min. The y-axis is expressed relative to the total ^14 C-label in each sample injected (2,410 dpm). The reaction went to 0.753 completion at infinite time, as determined by heating at 100° C. The results, as determined by nonlinear regression are consistent with first-order decay with a rate constant kx =7.21+0.27×10^-7 s^-1 and 0.754±0.015 conversion at infinite time as determined by nonlinear regression.

[6] = Partition of released polar component into chloroform; type: physicochemical; conditions: released by denaturation in guanidine hydrochloride
Description: Eventually, it became evident that dihydrofinasteride is not the immediate product released upon denaturation of the enzyme-inhibitor complex. Several lines of evidence pointed to release of a much more polar [^3 H]-labeled component. Among these, it was disconcerting that recoveries of [^3 H]dihydrofinasteride on the reverse phase column were often only 35-45% of the radioactivity released from heat-denatured enzyme-inhibitor complex, the remainder never eluting (under acidic conditions). […] It is now clear that this polar intermediate accounts for most, or all, of the radioactivity released by any denaturation method, chromatographs anomalously, and is inadvertently converted to [^3 H]dihydrofinasteride during heat-denaturation.

[7] = molecular target: T4, human prostate (type 2) 5α-reductase (Homo sapiens, UniProt P31213); conditions: read-out: Km for testosterone; native human prostate enzyme, neutral pH; Faller et al.; cited from earlier work
T4 sequence (P31213 1-254): T1 sequence (P31213 1-254)

[8] = molecular target: T4, human prostate (type 2) 5α-reductase; experiment: Steady-state enzyme kinetics of substrates; type: biochemical; design: native prostate enzyme considered interchangeable; conditions: pH 7.2, 37° C.
Description: The model applies in many aspects to both slow-binding, reversible inhibitors and to mechanism-based, irreversible ones.
When tissue extracts were the source of enzyme, the quenched reactions were clarified by centrifugation at 10,000×g before analysis.

[9] = Table 1, pH 5.5, 37° C., no time-dependent inhibition, read-out: Ki (apparent)
[10] = Table 3, human type 2, read-out: kon

CC(C)(C)NC(=O)[C@H]1CC[C@H]2[C@@H]3CC[C@H]4NC(=O)CC[C@]4(C)[C@H]3CC[C@]12C [Compound 2]
Ki [1, 9]: 8 nM

COC(=O)[C@H]1CC[C@H]2[C@@H]3CC[C@H]4NC(=O)C=C[C@]4(C)[C@H]3CC[C@]12C [Compound 3]
kon ([1]; Table 1, pH 5.5, 37° C.): 0.85 10^5 × M^-1 s^-1

COC(=O)[C@H]1CC[C@H]2[C@@H]3CC[C@H]4N(C)C(=O)C=C[C@]4(C)[C@H]3CC[C@]12C [Compound 4]
Ki [1]: 960 nM

C[C@]12C=CC(=O)N[C@@H]1CC[C@@H]1[C@@H]2CC[C@]2(C)[C@@H](C(=O)C3CCCCC3)CC[C@@H]12 [Compound 5]
kon ([1]; Table 1, pH 5.5, 37° C.): 28.00 10^5 × M^-1 s^-1

C[C@]12CCC(=O)N[C@@H]1CC[C@@H]1[C@@H]2CC[C@]2(C)[C@@H](C(=O)C3CCCCC3)CC[C@@H]12 [Compound 6]
Ki [1, 9]: 0.3 nM

CN1C(=O)C=C[C@]2(C)[C@H]3CC[C@]4(C)[C@@H](C(=O)C5CCCCC5)CC[C@H]4[C@@H]3CC[C@@H]12 [Compound 7]
Ki [1, 9]: 13 nM

CN1C(=O)CC[C@]2(C)[C@H]3CC[C@]4(C)[C@@H](C(=O)C5CCCCC5)CC[C@H]4[C@@H]3CC[C@@H]12 [Compound 8]
Ki [1, 9]: 0.2 nM

C[C@]12C=CC(=O)N[C@@H]1CC[C@@H]1[C@@H]2CC[C@]2(C)[C@@H](C(=O)NC3C4CC5CC(C4)CC3C5)CC[C@@H]12 (some centres unmarked) [Compound 9]
kon ([1]; Table 1, pH 5.5, 37° C.): 47.00 10^5 × M^-1 s^-1

CN1C(=O)CC[C@]2(C)[C@H]3CC[C@]4(C)[C@@H](C(=O)NC5C6CC7CC(C6)CC5C7)CC[C@H]4[C@@H]3CC[C@@H]12 (some centres unmarked) [Compound 10]
Ki [1, 9]: 0.5 nM

CC1C[C@H]2NC(=O)C=C[C@]2(C)[C@H]2CC[C@]3(C)CC(Oc4ccc(Cl)cc4)C[C@H]3[C@H]12 (some centres unmarked) [Compound 11]
IC50 ([1]; Table 3, human type 2): > 10000 nM
kon [1, 10]: 50 M⁻¹ s⁻¹
selectivity for human 5α-reductase type 1 [2]: 3,300
IC50 [2]: 8 nM
kon [2]: 170000 M⁻¹ s⁻¹

C[C@]12C=CC(=O)N[C@@H]1CC[C@@H]1[C@@H]2CC[C@]2(C)C(CCC(=O)Nc3ccncc3)CC[C@@H]12 (some centres unmarked) [Compound 12]
IC50 ([1]; Table 3, human type 2): 3500 nM
kon [1, 10]: 140 M⁻¹ s⁻¹
selectivity for human 5α-reductase type 1 [2]: 1,200
IC50 [2]: 2.8 nM
kon [2]: 170000 M⁻¹ s⁻¹

C[C@]12C=CC(=O)N[C@@H]1CC[C@@H]1[C@@H]2CC[C@]2(C)C(CC#N)CC[C@@H]12 (some centres unmarked) [Compound 13]
IC50 ([1]; Table 3, human type 2): 8400 nM
kon [1, 10]: 140 M⁻¹ s⁻¹
selectivity for human 5α-reductase type 1 [2]: 1,200
IC50 [2]: 3 nM
kon [2]: 180000 M⁻¹ s⁻¹

COC(C)C1CC[C@H]2[C@@H]3CC[C@H]4NC(=O)C=C[C@]4(C)[C@H]3CC[C@]12C (some centres unmarked) [Compound 14]
IC50 ([1]; Table 3, human type 2): 5400 nM
kon [1, 10]: 130 M⁻¹ s⁻¹
selectivity for human 5α-reductase type 1 [2]: 1,600
IC50 [2]: 1.8 nM
kon [2]: 200000 M⁻¹ s⁻¹

NC(=O)C1=CN([C@@H]2O[C@H](COP(=O)(O)OP(=O)(O)OC[C@H]3O[C@@H](n4cnc5c(N)ncnc54)[C@H](O)[C@@H]3O)[C@@H](O)[C@H]2O)C=CC1CC(=O)C(=O)O (some centres unmarked) [NAD-pyruvate adduct]
stability [3]: so unstable as to preclude normal kinetic measurements

CC(C)(C)NC(=O)[C@H]1CC[C@H]2[C@@H]3CC[C@H]4NC(=O)C(C5C=CN([C@@H]6O[C@H](COP(=O)(O)OP(=O)(O)OC[C@H]7O[C@@H](n8cnc9c(N)ncnc98)[C@H](OP(=O)(O)O)[C@@H]7O)[C@@H](O)[C@H]6O)C=C5C(N)=O)C[C@]4(C)[C@H]3CC[C@]12C (some centres unmarked) [NADP-dihydrofinasteride adduct]
rate constant for release of adduct from competent enzyme ([4]; bounded by observed decay of enzyme-[^3 H]finasteride complex): ≤ 3e-07 s⁻¹
rate constant for binding of adduct to free enzyme, k-3 ([4]; extrapolated to zero pyridine-nucleotide cofactor): ~ 1×10^6 M^-1 s^-1
mode of inhibition ([4]; versus NADPH and testosterone): competitive with the first substrate (NADPH) and independent of saturating concentrations of the second (testosterone)
half-life ([5]; 0.1M ammonium formate, pH 4.00, 100° C., read-out: halflife for decomposition): ~1 min
degraded ([5]; 0.1m ammonium formate, pH 4, 0.1M ammonium formate, pH 4.00, 100° C., read-out: conversion to [^14 C]-dihydrofinasteride at infinite time): 88%
degraded at 0.235 µM ([5]; pH 7.2, 37° C., read-out: conversion at infinite time, by nonlinear regression): 75.4 ± 1.5%
degraded at 0.235 µM ([5]; pH 7.2, read-out: completion at infinite time, by heating at 100° C.): 75.3%
storage stability ([5]; ammonium bicarbonate buffer, pH 9, -75° C.): stable for months
stability relative to NAD-pyruvate counterpart ([5]; oxidation and dissociation): more stable to oxidation, and certainly to dissociation,than its NAD-pyruvate counterpart
rate constant kx for nonenzymatic breakdown to NADP^+ and dihydrofinasteride ([5]; pH 7.2, 37° C.): 7.21+0.27×10^-7 s^-1
half-life ([5]; pH 7.2, 37° C., read-out: halflife of nonenzymatic breakdown (converted)): 16000 min
degraded ([5]; pH 7.2, pH 7.2, 37° C., read-out: completion of formation of [^14 C]dihydrofinasteride at infinite time): 75%
ability to dissociate to [^14 C]-dihydrofinasteride after oxidation ([5]; listed as NADP-[^14 C]dihydrofinasteride adduct): completely abolished the ability to dissociate to [^14 C]-dihydrofinasteride
ability to dissociate to [^14 C]-dihydrofinasteride after oxidation ([5]; listed as covalent adduct of inhibitor and cofactor): abolished by treatment with pyrazine methosulfate
rate constant of decomposition ([5]; water, neutral pH, 100° C.): ~ 6×10^-4 s^-1
half-life ([5]; water, neutral pH, 100° C., read-out: halflife of decomposition): 20 min
radioactivity partitioning into chloroform [6]: < 5%

C[C@]12CC[C@H]3[C@@H](CCC4=CC(=O)CC[C@@]43C)[C@@H]1CC[C@@H]2O [testosterone]
Km [7]: 0.02 ± 0.003 µM
kcat/Km [8]: 2.99±0.32×10^6 M^-1 s^-1
turnover number kcat ([8]; by titration with finasteride): 0.075 ± 0.006 s⁻¹
